Seven molecules from ChEMBL document CHEMBL1201862, “PubChem BioAssay data set” (2004) can be followed below.

Calls of active or inactive are those of the source.

A short description of assay [1]: growth suppression of beta-catenin-knockout colon cells, dose response, cell-based, HCT116, human colon tumor (AID 1045).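 Note: HCT116 colon tumor cells with beta catenin knocked out; cells exposed to compound for 60 hours.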 Format: functional.
Assay [2] is described as follows: inhibitors of intracellular T. cruzi replication, confirmation, NIH3T3 host cells, beta-gal luminescence (AID 2044).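 Note: intracellular parasites grown in NIH/3T3 mouse fibroblasts as host cells; luminescent beta-galactosidase reporter signal from transgenic T. cruzi replicating inside host cells; inhibitors lower the luminescence signal.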 Format: functional, cell-based.
Assay [3] is described as follows: MDA-MB-231 cell growth inhibition, dose response, cytotoxicity control for RAD54 inhibitor project, CellTiter-Glo luminescence, cherry-pick (AID 651692). Format: functional, cell-based.
Assay [4] can be described thus: cytotoxicity toward NIH3T3 fibroblasts, dose response, counter-screen, cell-based, ATP luminescence, mouse fibroblasts (AID 2010).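 Note: cells exposed to compound for about 90 hours before reading.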 In kind it is functional.
Assay [5] in a line: DNA binding of candidate compounds, dose response, artefact control for RAD54 inhibitor project, biochemical, fluorescence polarization, cherry-pick (AID 651673). Format: functional.
Assay [6] in a line: growth suppression of PTEN-null colon cells, dose response, cell-based, HCT116 PTEN knockout (AID 1047).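 Note: HCT116 colon tumor cells with PTEN knocked out; cells exposed to compound for 60 hours before readout; potency for loss of cell viability measured by luminescence.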 Format: functional.
Assay [7] addresses T1, DNA repair and recombination protein RAD54-like (Homo sapiens, UniProt Q92698).
T1 sequence (Q92698 whole entry): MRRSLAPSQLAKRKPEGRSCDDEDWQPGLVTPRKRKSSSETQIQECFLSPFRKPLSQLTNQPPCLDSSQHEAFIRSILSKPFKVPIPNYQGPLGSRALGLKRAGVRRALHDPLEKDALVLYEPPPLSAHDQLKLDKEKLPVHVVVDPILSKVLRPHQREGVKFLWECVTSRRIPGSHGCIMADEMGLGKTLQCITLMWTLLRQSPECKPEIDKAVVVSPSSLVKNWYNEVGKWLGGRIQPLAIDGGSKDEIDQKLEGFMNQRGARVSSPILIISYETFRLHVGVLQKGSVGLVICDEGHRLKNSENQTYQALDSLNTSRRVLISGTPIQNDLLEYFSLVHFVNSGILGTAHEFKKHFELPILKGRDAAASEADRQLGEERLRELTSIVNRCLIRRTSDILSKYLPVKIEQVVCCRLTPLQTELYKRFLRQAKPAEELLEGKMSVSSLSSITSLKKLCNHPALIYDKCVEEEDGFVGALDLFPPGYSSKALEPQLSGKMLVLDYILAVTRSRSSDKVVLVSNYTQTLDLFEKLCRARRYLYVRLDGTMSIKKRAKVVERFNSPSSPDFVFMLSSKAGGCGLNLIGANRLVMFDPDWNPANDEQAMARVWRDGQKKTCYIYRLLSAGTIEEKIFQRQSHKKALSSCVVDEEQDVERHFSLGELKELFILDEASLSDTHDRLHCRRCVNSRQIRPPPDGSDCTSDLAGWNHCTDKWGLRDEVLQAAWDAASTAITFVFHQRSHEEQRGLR
The experiment in a line: inhibitors of human RAD54 branch migration, confirmation, biochemical, fluorescence, cherry-picked samples, dose series (AID 651657). Format: functional.

Assay [8] deals with 5-hydroxytryptamine receptor 2A (Mus musculus, UniProt P35363). Format: functional, cell-based.
A further assay addresses Mu-type opioid receptor (Homo sapiens, UniProt P35372). Format: functional, cell-based.
A short description of assay [9]: Counterscreen for activators of the function of SWI/SNF related, matrix associated, actin dependent regulator of chromatin, subfamily a, member 2 (SMARCA2, BRM): Luminescence-based cell-based high throughput dose response assay to identify non-selective compounds using the VP16 reporter assay. Format: functional.
For assay [10], the target named is SWI/SNF-related matrix-associated actin-dependent regulator of chromatin subfamily A member 2 (Homo sapiens, UniProt P51531). Nature of the assay: Luminescence-based cell-based high throughput dose response assay to identify activators of the function of SWI/SNF related, matrix associated, actin dependent regulator of chromatin, subfamily a, member 2 (SMARCA2, BRM). In kind it is functional.

Assay [11] is described as follows: HeLa cell cytotoxicity, dose response, cytotoxicity control for MgcRacGAP inhibitor project (AID 624300). In kind it is functional.
The target of assay [12] is T2, Rac GTPase-activating protein 1 (Homo sapiens, UniProt Q9H0H5).
T2 sequence (Q9H0H5 whole entry): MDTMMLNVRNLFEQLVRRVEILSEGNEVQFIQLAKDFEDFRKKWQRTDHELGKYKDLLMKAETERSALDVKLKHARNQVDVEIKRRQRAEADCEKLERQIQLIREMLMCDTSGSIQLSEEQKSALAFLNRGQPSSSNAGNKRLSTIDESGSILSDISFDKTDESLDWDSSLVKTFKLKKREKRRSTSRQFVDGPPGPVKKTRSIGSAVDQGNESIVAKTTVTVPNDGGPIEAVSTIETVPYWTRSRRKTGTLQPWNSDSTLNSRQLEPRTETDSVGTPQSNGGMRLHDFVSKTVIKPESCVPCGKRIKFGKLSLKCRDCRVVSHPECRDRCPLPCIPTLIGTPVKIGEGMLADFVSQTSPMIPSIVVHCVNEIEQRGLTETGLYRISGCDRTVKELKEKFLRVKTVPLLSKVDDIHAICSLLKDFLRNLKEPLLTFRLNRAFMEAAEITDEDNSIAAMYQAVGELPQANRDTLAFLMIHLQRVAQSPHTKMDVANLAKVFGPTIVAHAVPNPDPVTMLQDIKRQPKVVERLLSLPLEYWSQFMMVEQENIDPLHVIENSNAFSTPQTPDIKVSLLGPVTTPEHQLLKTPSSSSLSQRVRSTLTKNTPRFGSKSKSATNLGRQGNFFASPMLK
Nature of the assay: MgcRacGAP GTPase-activating activity inhibitors, confirmation, biochemical, ADP Hunter fluorescence, primary and confirmatory (AID 624330). Format: functional.

In assay [13] the target is T3, Sentrin-specific protease 1 (Homo sapiens, UniProt Q9P0U3). The experiment in a line: Dose response confirmation of small molecule inhibitors of the catalytic domain of the SUMO protease, SENP1 in a FRET assay. The conditions noted are these: read-out: IC50_Mean. In kind it is functional.
The target in assay [14] is T3, Sentrin-specific protease 1. The experiment in a line: potency of human SENP1 inhibitors, dose response, biochemical, kinetic FRET (AID 651697). Format: functional. As to conditions: read-out: IC50_Mean.
The target in assay [15] is Tyrosine-protein phosphatase non-receptor type 22 (Homo sapiens, UniProt Q9Y2R2). The experiment in a line: PTPN22 phosphatase inhibition, dose response, selectivity assay for STEP inhibitor project, biochemical (AID 624241). In kind it is functional.
Assay [16] deals with Dual specificity protein phosphatase 3 (Homo sapiens, UniProt P51452). The experiment in a line: VHR phosphatase inhibition, dose response, selectivity assay for STEP inhibitor project, biochemical (AID 602374). Format: functional. As to conditions: read-out: IC50_Mean.
Assay [17] deals with Tyrosine-protein phosphatase non-receptor type 5 (Homo sapiens, UniProt P54829). Nature of the assay: STEP phosphatase inhibitors, confirmation, biochemical, fluorescence intensity, uHTS hits (AID 602372). In kind it is functional. The conditions noted are these: read-out: IC50_Mean.
Assay [18] deals with T4, SUMO-activating enzyme (Homo sapiens, UniProt Q9UBT2). Nature of the assay: inhibitors of in vitro SUMOylation cascade, primary screen, biochemical, HTRF, uHTS (AID 2006). Format: protein-complex assay.
T4 sequence (Q9UBE0 whole entry): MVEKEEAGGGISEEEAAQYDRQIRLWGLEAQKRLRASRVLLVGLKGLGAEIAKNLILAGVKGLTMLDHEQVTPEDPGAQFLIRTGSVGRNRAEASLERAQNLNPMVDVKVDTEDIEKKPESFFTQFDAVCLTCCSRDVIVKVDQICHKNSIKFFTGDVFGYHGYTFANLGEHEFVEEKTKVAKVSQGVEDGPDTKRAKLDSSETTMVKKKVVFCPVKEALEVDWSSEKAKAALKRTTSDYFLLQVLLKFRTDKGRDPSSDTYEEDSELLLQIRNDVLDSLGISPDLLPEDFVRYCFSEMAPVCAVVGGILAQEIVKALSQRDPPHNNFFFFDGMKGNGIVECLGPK
T4 sequence (Q9UBT2 whole entry): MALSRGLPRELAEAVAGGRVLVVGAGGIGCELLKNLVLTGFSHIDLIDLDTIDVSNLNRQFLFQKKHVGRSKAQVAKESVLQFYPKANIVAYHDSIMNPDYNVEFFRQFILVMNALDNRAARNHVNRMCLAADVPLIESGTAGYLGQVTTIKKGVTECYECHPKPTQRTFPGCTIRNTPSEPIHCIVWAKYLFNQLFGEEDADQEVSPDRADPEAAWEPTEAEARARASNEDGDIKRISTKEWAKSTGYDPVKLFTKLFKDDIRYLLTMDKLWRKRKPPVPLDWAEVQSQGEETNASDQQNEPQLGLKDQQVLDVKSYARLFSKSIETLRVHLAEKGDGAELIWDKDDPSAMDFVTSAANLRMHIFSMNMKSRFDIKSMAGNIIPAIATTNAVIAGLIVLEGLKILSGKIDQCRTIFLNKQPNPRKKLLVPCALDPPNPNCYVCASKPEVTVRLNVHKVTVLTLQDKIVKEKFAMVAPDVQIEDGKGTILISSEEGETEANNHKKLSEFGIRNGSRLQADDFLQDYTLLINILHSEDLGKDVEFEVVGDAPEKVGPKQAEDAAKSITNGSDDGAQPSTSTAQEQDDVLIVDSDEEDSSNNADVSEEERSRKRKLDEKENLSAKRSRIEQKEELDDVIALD
In assay [19] the target is Tyrosine-protein phosphatase non-receptor type 11 (Homo sapiens, UniProt Q06124). The experiment in a line: SHP2 phosphatase inhibition, dose response, selectivity assay for STEP inhibitor project, biochemical (AID 602367). In kind it is functional. The conditions noted are these: read-out: IC50_Mean.
The target in assay [20] is T5, Voltage-gated N-type calcium channel alpha-1B subunit/Amyloid beta A4 precursor protein-binding family A member 1 (Homo sapiens, UniProt Q00975+Q02410). In kind it is protein assay.
T5 sequence (Q00975 whole entry): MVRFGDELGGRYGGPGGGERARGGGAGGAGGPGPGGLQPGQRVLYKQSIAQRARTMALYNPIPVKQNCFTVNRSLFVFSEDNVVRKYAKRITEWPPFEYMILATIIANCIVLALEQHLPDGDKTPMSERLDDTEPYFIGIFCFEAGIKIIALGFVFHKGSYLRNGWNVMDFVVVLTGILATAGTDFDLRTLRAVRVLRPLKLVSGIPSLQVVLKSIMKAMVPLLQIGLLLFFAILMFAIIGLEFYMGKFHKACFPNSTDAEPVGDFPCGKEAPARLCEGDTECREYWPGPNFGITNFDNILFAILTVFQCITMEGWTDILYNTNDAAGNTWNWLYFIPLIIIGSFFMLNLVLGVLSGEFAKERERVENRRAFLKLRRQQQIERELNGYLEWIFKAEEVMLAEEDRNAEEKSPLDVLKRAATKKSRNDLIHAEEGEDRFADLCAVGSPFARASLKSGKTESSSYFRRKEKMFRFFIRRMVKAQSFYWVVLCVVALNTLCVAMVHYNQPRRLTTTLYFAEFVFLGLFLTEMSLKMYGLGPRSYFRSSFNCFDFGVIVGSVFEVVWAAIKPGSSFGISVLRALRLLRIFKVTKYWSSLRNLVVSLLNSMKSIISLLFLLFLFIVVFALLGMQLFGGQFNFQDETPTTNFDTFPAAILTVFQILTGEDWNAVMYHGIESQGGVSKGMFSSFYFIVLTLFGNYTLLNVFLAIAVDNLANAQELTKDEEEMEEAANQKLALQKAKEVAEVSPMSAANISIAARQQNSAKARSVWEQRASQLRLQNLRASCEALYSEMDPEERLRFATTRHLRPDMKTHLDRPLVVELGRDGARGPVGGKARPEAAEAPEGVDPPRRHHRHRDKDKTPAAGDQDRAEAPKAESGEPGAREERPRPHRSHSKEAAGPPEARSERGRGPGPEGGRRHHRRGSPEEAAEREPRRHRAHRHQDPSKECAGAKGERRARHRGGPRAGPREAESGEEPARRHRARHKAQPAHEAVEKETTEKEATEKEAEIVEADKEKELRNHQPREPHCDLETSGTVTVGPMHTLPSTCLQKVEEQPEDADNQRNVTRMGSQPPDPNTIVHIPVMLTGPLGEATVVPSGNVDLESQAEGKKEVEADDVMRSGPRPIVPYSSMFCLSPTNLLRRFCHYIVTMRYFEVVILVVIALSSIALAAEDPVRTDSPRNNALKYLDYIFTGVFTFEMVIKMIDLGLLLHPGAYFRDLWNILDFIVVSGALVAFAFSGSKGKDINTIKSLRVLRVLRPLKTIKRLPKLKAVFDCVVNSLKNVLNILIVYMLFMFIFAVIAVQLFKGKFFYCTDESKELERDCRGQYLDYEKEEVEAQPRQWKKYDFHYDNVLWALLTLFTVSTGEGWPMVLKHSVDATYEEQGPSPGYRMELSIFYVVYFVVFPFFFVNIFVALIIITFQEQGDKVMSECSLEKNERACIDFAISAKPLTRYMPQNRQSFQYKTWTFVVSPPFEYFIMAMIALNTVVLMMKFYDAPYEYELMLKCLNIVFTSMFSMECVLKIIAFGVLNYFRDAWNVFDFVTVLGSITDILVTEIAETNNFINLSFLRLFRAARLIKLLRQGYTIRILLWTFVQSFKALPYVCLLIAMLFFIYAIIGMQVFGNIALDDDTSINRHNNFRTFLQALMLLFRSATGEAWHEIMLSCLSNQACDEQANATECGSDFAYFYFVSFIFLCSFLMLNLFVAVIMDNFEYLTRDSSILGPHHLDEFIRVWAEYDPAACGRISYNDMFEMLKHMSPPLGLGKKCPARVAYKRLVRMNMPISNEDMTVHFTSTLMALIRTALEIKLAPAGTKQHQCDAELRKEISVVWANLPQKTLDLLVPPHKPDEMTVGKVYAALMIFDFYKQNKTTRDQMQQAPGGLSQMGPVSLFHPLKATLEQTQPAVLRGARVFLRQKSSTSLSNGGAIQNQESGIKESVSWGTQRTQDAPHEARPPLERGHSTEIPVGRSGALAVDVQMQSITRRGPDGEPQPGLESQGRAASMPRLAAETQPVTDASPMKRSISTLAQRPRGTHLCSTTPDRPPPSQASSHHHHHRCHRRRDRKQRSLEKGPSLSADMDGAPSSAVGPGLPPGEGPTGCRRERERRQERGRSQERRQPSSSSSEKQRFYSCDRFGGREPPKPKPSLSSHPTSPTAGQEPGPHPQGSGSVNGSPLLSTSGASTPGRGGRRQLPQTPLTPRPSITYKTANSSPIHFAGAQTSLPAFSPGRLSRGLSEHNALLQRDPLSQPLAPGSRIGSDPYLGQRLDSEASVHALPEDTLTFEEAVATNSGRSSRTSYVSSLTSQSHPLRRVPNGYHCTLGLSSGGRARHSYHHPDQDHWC
T5 sequence (Q02410 whole entry): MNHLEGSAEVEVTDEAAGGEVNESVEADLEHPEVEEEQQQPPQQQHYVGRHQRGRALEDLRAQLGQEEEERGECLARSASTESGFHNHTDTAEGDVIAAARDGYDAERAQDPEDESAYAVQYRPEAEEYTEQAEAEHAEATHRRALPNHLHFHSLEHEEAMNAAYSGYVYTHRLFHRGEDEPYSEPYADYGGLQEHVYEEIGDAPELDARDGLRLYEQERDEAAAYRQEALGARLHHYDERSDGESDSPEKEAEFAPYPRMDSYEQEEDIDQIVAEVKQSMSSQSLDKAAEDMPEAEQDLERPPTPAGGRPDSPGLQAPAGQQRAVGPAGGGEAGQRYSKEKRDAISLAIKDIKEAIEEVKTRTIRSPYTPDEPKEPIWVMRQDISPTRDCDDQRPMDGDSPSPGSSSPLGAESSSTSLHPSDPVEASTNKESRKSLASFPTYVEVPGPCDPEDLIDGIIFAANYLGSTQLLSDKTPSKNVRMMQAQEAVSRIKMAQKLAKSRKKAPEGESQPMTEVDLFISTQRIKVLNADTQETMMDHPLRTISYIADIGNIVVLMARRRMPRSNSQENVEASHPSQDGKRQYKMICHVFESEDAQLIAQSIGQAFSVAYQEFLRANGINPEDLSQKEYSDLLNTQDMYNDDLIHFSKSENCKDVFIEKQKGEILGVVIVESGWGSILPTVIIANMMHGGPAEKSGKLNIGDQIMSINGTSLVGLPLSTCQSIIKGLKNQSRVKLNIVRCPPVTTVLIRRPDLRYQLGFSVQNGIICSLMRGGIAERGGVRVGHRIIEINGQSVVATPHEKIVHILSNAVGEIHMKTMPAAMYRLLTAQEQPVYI
Assay [21] deals with T6, Small ubiquitin-related modifier 1 (Homo sapiens, UniProt P63165). Nature of the assay: inhibitors of SUMO1 partner interactions, dose response, biochemical, FRET (AID 624383). Format: functional. As to conditions: read-out: IC50_Mean.
T6 sequence (P63165 whole entry): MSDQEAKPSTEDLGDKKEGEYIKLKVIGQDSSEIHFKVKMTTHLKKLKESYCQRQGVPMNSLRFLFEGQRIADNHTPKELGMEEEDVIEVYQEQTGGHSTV
Assay [22] has as its target T5, Voltage-gated N-type calcium channel alpha-1B subunit/Amyloid beta A4 precursor protein-binding family A member 1. Format: protein assay. This is another data set of the same source.
The target in assay [23] is T4, SUMO-activating enzyme. The experiment in a line: SUMOylation inhibitor hit validation, confirmation, SUMOylation inhibitor project, biochemical, AlphaScreen (AID 2018). In kind it is functional.
Assay [24] deals with T6, Small ubiquitin-related modifier 1. Nature of the assay: inhibitors of SUMO1 peptide binding, dose response, biochemical, fluorescence polarization, uHTS hits (AID 624382). Format: functional. The conditions noted are these: read-out: IC50_Mean.
The target in assay [25] is T7, Trace amine-associated receptor 1 (Homo sapiens, UniProt Q96RJ0). Nature of the assay: Counterscreen for agonists of the human trace amine associated receptor 1 (hTAAR1): Fluorescence-based cell-based high throughput dose response assay to identify hTAAR1 agonist that also desensitize TAAR1 receptor response. In kind it is functional.
T7 sequence (Q96RJ0 whole entry): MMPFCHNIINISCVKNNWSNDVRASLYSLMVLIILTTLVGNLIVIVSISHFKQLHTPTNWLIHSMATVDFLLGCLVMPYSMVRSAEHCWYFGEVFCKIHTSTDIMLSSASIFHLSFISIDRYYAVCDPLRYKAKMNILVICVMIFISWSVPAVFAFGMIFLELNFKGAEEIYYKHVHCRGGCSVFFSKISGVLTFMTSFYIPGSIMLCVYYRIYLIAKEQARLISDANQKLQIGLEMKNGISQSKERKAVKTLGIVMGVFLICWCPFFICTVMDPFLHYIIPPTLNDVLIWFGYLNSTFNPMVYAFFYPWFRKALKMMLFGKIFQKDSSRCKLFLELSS
Assay [26] can be described thus: cells. Format: functional, cell-based.
A short description of assay [27]: cells. Format: functional, cell-based. The source holds these as a separate data set.
Assay [28] has as its target T7, Trace amine-associated receptor 1. Nature of the assay: Fluorescence-based cell-based high throughput dose response assay to identify agonists of the human trace amine associated receptor 1 (TAAR1). Format: functional.

Chain of Mu-type opioid receptor (P35372 whole entry): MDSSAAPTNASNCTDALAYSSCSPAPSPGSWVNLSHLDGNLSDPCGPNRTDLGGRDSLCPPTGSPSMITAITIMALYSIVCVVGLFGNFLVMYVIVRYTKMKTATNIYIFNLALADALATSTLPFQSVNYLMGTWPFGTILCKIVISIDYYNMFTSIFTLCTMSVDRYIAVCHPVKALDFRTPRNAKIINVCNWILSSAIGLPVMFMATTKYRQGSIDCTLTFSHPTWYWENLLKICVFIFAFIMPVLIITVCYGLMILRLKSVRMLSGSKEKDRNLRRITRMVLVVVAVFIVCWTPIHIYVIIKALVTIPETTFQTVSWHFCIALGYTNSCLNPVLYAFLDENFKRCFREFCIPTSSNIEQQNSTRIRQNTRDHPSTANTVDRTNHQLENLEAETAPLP

Take `COc1ccc(Nc2nc(N3CCCC3)nc3ccccc23)c(OC)c1`: the EC50 in assay [1] was 1.2 µM (active); in assay [2], 0.627 µM (active); in assay [4] it was 22.2 µM (active); in [6], 1.97 µM (active). In addition, the results for the AC50 in assay [3], in assay [5] and in assay [7] were 35.6 µM (active), 63.3 µM (active) and 6.47 µM (active), respectively.

With `COc1ccc(CN2CCN(c3ncccn3)CC2)c(C)c1C`, the EC50 is 0.263 µM (active) in assay [8] and 92.5 µM (inactive) on Mu-type opioid receptor.

As for `CC(=O)c1ccc(OCCCC(=O)OCc2nnc(-c3ccc(Cl)cc3)o2)cc1`, the EC50 in assay [9] and in assay [10] was > 91.1 µM (inactive) in each case.

Consider `Cn1c(-c2ccc3c(c2)OCO3)cnc1NCc1ccccc1Cl`, for which, in assay [11], the CC50 is 100 µM (active). For the same molecule, in assay [12], the IC50 is 72 µM (active).

As for `O=C1C=C(Nc2ccc(Cl)cc2)C(=O)N1c1ccc(Cl)cc1`, the IC50 in [13] is 12.5 µM (active); in assay [14], 21 µM (inactive).

With `CCCc1cc(=O)oc2cc(OCC(=O)Nc3ccc(S(N)(=O)=O)cc3)ccc12`, the IC50 in assay [15] was 31 µM (inactive); in [16], 5.69 µM (active); in assay [17], 15.5 µM (active); at SUMO-activating enzyme [18], 11.5 µM (active); in assay [19], 1.15 µM (active); in [20], > 50 µM (inactive). Also, the IC50 in assay [21] is 6.44 µM (active); in assay [22], 14.2 µM (active); at SUMO-activating enzyme [23] it was 6.11 µM (active); in [24] it was > 66.6 µM (inactive).

For `O=C(O)C1CCCCC1C(=O)NCCc1cccc(Cl)c1` (centres undefined), the IC50 (in assay [25]; in “cells [27]”) was > 29.9 µM (inactive) in each case. In addition, the EC50 in “cells [26]” is > 29.9 µM (inactive); in assay [28], 2.5 µM (active).
